Test results reported in PMC11083148, “Structure–Activity Relationship Studies on Highly Functionalized Pyrazole Hydrazones and Amides as Antiproliferative and Antioxidant Agents” (International Journal of Molecular Sciences, 2024).

How the values were obtained:
RXF 393 = test: NCI screening, Renal Cancer; assay type: cell-based; details: RXF 393, Renal Cancer; 10 µM
Protocol: (§1) In addition, 11a and 17 (representative compounds of the acylhydrazone and amide series) were selected by the National Cancer Institute (NCI, Germantown, MD, USA) and tested at a fixed concentration of 10 µM against a panel of fifty-nine different cancer cell lines, including highly metastatic tumors (Table 2).

786-0 = test: NCI screening, Renal Cancer; assay type: cell-based; details: 786-0, Renal Cancer; 10 µM
Protocol: as §1

CAKI-1 = test: NCI screening, Renal Cancer; assay type: cell-based; details: CAKI-1, Renal Cancer; 10 µM
Protocol: as §1

SN12C = test: NCI screening, Renal Cancer; assay type: cell-based; details: 10 µM
Protocol: as §1

ACHN = test: NCI screening, Renal Cancer; assay type: cell-based; details: 10 µM
Protocol: as §1

A498 = test: NCI screening, Renal Cancer; assay type: cell-based; details: 10 µM
Protocol: as §1

UO-31 = test: NCI screening, Renal Cancer; assay type: cell-based; details: UO-31, Renal Cancer; 10 µM
Protocol: as §1

TK-10 = test: NCI screening, Renal Cancer; assay type: cell-based; details: TK-10, Renal Cancer; 10 µM
Protocol: as §1

HeLa = test: MTT assay, antiproliferative activity; assay type: cell-based; details: Homo sapiens; for activity at 10 µM: 48h, read-out: Mean Growth Percentage
SKMEL28 = test: MTT assay, antiproliferative activity; assay type: cell-based; details: Homo sapiens; for Mean growth percentage at 10 µM: SK-MEL-28, 10 µM, 48h
SKOV3 = test: MTT assay, antiproliferative activity; assay type: cell-based; details: Homo sapiens; for Mean growth percentage at 10 µM: SK-OV-3, 10 µM, 48h
MCF7 = test: MTT assay, antiproliferative activity; assay type: cell-based; details: Homo sapiens; for mean growth percentage (cell growth remaining vs control) at 10 µM: 48h
NCI-H322M = test: NCI screening, Non-Small Cell Lung Cancer; assay type: cell-based; details: 10 µM
Protocol: as §1

NCI-H226 = test: NCI screening, Non-Small Cell Lung Cancer; assay type: cell-based; details: 10 µM
Protocol: as §1

EKVX = test: NCI screening, Non-Small Cell Lung Cancer; assay type: cell-based; details: 10 µM
Protocol: as §1

NCI-H23 = test: NCI screening, Non-Small Cell Lung Cancer; assay type: cell-based; details: 10 µM
Protocol: as §1

HOP-92 = test: NCI screening, Non-Small Cell Lung Cancer; assay type: cell-based; details: HOP-92, Non-Small Cell Lung Cancer; 10 µM
Protocol: as §1

A549/ATCC = test: NCI screening, Non-Small Cell Lung Cancer; assay type: cell-based; details: 10 µM
Protocol: as §1

HOP-62 = test: NCI screening, Non-Small Cell Lung Cancer; assay type: cell-based; details: HOP-62, Non-Small Cell Lung Cancer; 10 µM
Protocol: as §1

MDA-MB231 = test: MTT assay, antiproliferative activity; assay type: cell-based; details: Homo sapiens, MDA-MB-231, 48h
In short: (§2)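 Cells plated 16 h, then exposed to compounds at 10 μM final for 48 h at 37 °C, 5% CO2. MTT added for 4 h, formazan dissolved in DMSO, absorbance read at 570 nm; values as percent of DMSO-only control, mean of three experiments in six replicates.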

Hep-G2 = test: MTT assay, antiproliferative activity; assay type: cell-based; details: Homo sapiens, HepG2, 48h
In short: as §2

A549 = test: MTT assay, antiproliferative activity; assay type: cell-based; details: Homo sapiens, 48h, read-out: Mean Growth Percentage
In short: as §2

SK-BR3 = test: MTT assay, antiproliferative activity; assay type: cell-based; details: Homo sapiens, SK-BR-3, 48h
In short: as §2

CCRF-CEM = test: NCI screening, Leukemia; assay type: cell-based; details: 10 µM
Protocol: as §1

RPMI-8226 = test: NCI screening, Leukemia; assay type: cell-based; details: RPMI-8226, Leukemia; 10 µM
Protocol: as §1

MOLT-4 = test: NCI screening, Leukemia; assay type: cell-based; details: MOLT-4, Leukemia; 10 µM
Protocol: as §1

MDA-MB-231/ATCC = test: NCI screening, Breast Cancer; assay type: cell-based; details: 10 µM
Protocol: as §1

T-47D = test: NCI screening, Breast Cancer; assay type: cell-based; details: 10 µM
Protocol: as §1

BT-549 = test: NCI screening, Breast Cancer; assay type: cell-based; details: BT-549, Breast Cancer; 10 µM
Protocol: as §1

GM-6114 = test: MTT assay, cytotoxicity on normal fibroblasts; assay type: cell-based; details: human, 48 h, 10 µM

| Structure (SMILES) | Growth Percentage (%) (RXF 393) | Growth Percentage (%) (786-0) | Growth Percentage (%) (CAKI-1) | Growth Percentage (%) (SN12C) | Growth Percentage (%) (ACHN) | Growth Percentage (%) (A498) | Growth Percentage (%) (UO-31) | Growth Percentage (%) (TK-10) | activity at 10 µM (HeLa) | Mean growth percentage at 10 µM (SKMEL28) | Mean growth percentage at 10 µM (SKOV3) | mean growth percentage (cell growth remaining vs control) at 10 µM (MCF7) | Growth Percentage (%) (NCI-H322M) | Growth Percentage (%) (NCI-H226) | Growth Percentage (%) (EKVX) | Growth Percentage (%) (NCI-H23) | Growth Percentage (%) (HOP-92) | Growth Percentage (%) (A549/ATCC) | Growth Percentage (%) (HOP-62) | Mean growth percentage at 10 µM (MDA-MB231) | other results |
| --- | --- | --- | --- | --- | --- | --- | --- | --- | --- | --- | --- | --- | --- | --- | --- | --- | --- | --- | --- | --- | --- |
| COc1ccc(/C=N/NC(=O)c2c(N)nn(C)c2Nc2ccccc2)cc1 [11a, (E)-3-amino-N′-(4-methoxybenzylidene)-1-methyl-5-(phenylamino)-1H-pyrazole-4-carbohydrazide] | 37.26% | 57.97% | 39.84% | 57.59% | 49.99% | 33.08% | 51.18% | 89.16% | 25% | 49.4% | 43.6% | 33.6% | 89.96% | 51.61% | 69.71% | 66.86% | 46.79% | 57.09% | 38.79% | 72% | IC50 (HeLa; MTT): 4.63 ± 0.41 µM; IC50 (SKMEL28; SK-MEL-28, MTT): 9.45 ± 0.66 µM; IC50 (SKOV3; SK-OV-3, MTT): 6.88 ± 0.23 µM; IC50 (MCF7; MTT): 6.9 ± 0.34 µM; Mean growth percentage at 10 µM (Hep-G2): 75%; activity at 10 µM (A549): 60.8%; Mean growth percentage at 10 µM (SK-BR3): 57%; Growth Percentage (%) (CCRF-CEM): 38.45%; Growth Percentage (%) (RPMI-8226): 61.65%; Growth Percentage (%) (MOLT-4): 49.41%; Growth Percentage (%) (MDA-MB-231/ATCC): 65.06%; Growth Percentage (%) (T-47D): 42.38%; Growth Percentage (%) (BT-549): 14.04%; melting point: 208 to 210 °C; Mean Growth Percentage (GM-6114): 69.81% |
| CCOC(=O)c1c(NC(=O)C2CC2)nn(C)c1Nc1ccccc1 [compound 17, Ethyl 3-(cyclopropanecarboxamido)-1-methyl-5-(phenylamino)-1H-pyrazole-4-carboxylate] | 101.07% | 101.26% | 86.39% | 104.27% | 104.77% | 92.87% | 87.45% | 107.78% | 109% | 85.9% | 86.9% | 92.8% | 94.41% | 98.86% | 96.82% | 98.44% | 81.47% | 101.59% | 110.36% | 127% | Mean growth percentage at 10 µM (Hep-G2): 103%; activity at 10 µM (A549): 75.8%; Mean growth percentage at 10 µM (SK-BR3): 106%; Growth Percentage (%) (CCRF-CEM): 97.75%; Growth Percentage (%) (RPMI-8226): 99.62%; Growth Percentage (%) (MOLT-4): 101.92%; Growth Percentage (%) (MDA-MB-231/ATCC): 100.37%; Growth Percentage (%) (T-47D): 93.07%; Growth Percentage (%) (BT-549): 118.46%; melting point: 144 to 145 °C; Mean Growth Percentage (GM-6114): 65.92% |
